From patent US6599943B1, “Use of hydroxyguanidines” (WaPharm AB, priority 1996, dated 2003)
Counter-ions that a name gives are not always drawn. Marks after values point to notes of the source that are not given here.

Legend:
[1] = target: T1, bovine milk xanthine oxidase (Bos taurus, UniProt P80457); assay: Capacity to sustain oxidation of xanthine by xanthine oxidase in the absence of oxygen, spectrophotometric; type: biochemical; parameters: host or cells: bovine milk
Protocol: Capacities of a series of hydroxyguanidine to sustain the oxidation of xanthine by xanthine oxidase in the absence of oxygen. The capacities of various hydroxyguanidines to sustain the oxidation of xanthine was assayed by using a spectrophotometric method. In this method bovine milk xanthine oxidase was injected to a Helma® sealable cuvette for anaerobic application thereby creating 1 ml of a reaction mixture that contained reagents as follows: 50 μM of a hydroxyguanidine, 50 μM xanthine, 0.05 units/ml bovine milk xanthine oxidase, 50 mM Tris and 1.5 mM EDTA; the pH of the reaction mixture being 7.5, and the temperature 20° C. Anaerobic conditions were assured by pre-gassing all solutions used for 5-10 min, with nitrogen. The rate of formation of uric acid was monitored spectrophotometrically by measuring the increase in absorbance at 295 nm (the absorption maximum for uric acid) at intervals. The relative capacities of the hydroxyguanidines to sustain oxidation of xanthine were estimated from the derivative of the initial linear phase of the curves. To obtain blank readings an equal volume of the solvent of the hydroxyguanidine (water) was added to the reaction mixture in separate experiments and the initial rate of absorbance change was substracted from the rate readings of the tested hydroxyguanidine.
Exemplary initial rates for the rate of the support of the oxidation of xanthine obtained by assaying the exemplary hydroxyguanidines listed above by the method in the present example are furthermore given in Table 2: […]
Target sequence in this assay (P80457 whole entry): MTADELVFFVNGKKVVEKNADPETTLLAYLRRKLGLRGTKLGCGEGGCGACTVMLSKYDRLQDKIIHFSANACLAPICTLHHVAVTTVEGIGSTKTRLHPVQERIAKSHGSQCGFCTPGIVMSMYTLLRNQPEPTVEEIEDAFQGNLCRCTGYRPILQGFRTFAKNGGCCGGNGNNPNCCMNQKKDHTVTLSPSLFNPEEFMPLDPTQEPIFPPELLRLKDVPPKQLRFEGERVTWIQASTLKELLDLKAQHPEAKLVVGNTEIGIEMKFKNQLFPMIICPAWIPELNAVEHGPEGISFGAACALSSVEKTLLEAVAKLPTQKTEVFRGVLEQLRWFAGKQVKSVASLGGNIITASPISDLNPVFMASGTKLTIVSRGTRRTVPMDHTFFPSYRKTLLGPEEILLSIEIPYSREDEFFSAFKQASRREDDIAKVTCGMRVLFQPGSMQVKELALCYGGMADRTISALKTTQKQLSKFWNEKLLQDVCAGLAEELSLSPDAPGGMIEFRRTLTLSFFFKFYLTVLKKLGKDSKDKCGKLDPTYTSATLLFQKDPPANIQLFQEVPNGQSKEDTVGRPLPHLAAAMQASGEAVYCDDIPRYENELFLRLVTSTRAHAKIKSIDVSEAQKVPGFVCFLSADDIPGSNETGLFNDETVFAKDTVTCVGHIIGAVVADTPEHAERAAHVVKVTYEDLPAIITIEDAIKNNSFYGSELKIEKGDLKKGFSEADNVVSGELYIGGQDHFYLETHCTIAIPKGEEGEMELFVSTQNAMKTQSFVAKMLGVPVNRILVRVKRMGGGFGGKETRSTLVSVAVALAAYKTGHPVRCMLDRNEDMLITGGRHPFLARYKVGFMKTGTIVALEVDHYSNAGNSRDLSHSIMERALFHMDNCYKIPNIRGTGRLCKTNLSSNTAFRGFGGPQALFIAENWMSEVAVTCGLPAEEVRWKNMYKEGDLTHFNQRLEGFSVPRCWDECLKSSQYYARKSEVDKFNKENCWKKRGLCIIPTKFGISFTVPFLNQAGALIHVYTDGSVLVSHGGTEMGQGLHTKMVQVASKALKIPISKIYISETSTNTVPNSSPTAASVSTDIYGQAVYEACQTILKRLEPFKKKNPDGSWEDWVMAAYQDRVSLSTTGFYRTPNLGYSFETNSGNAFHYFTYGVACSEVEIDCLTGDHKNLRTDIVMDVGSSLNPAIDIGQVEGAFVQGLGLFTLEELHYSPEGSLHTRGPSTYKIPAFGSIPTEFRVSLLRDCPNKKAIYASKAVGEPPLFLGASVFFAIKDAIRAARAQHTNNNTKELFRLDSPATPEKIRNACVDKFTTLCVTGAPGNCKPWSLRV

[2] = system: rat hearts (reperfusion injury); assay: Reperfusion injury of the heart: coronary artery occlusion/reperfusion arrhythmias; type: in vivo; conditions: for Ventricular tachycardia Insidence (%) / Ventricular tachycardia Insidence (number of animals) / Ventricular fibrilation Insidence (%) / Ventricular fibrilation Insidence (number of animals) / Ventricular fibrilation Duration / Ventricular tachycardia Duration / Ventricular fibrilation Duration (s) / Ventricular tachycardia Duration (s): 20 min reperfusion; for Ventricular fibrilation Duration / Ventricular tachycardia Duration / Ventricular fibrilation Duration (s) / Ventricular tachycardia Duration (s): mean ±SEM; for effect on incidence and duration of ventricular tachycardias and fibrillations and on mortality, in words: versus control, p<0.05
From the text: Capacity of a hydroxyguanidine (PR5) to afford a tissue protective effect in the heart. […] In this model the coronary arteries of rat hearts were occluded, and after some time reperfusion was allowed to occur. During reperfusion events of cardiac arrhythmias are observed. They are well known to be related to the accumulation of oxygen derived free radicals. These arrhythmias are monitored in the animals treated with PR5 and in control animals either receiving no drug or allopurinol. Allopurinol was used as a control because it is well known from the litterature as an agent capable of preventing the generation of oxygen derived free radicals. In brief, rats were anaesthetised with sodium pentobarbital and ventilated with air using a respirator for small animals at a pressure 15-20 cm H2O and a […] rate of 60 strokes/min. ECG (electrocardiogram) and systemic blood pressure was registered on a Physiograph DMP-4B (Narco Bio-Systems, Houston, USA) using, respectively, a standard lead II and a pressure transducer PR-1500 (Narco Bio-Systems, Houston, USA) contected via a catheter to the left carotid artery. The chest was opened via the fourth intercostal space, the pericardium incised and a sling (4/0 silk Medicor, Budapest, Hungary) was placed around the left coronary artery close to its origin. The silk ligature was passed through a piece of plastic tubing, the chest was partially closed and the animal was allowed to recover for 10 min. PR-5, dissolved in 0.9% NaCl, was then injected i.v. 10 min before the occlusion of the coronary artery at doses 1, 3 or 10 mg/kg body weight. As control served the same volume of 0.9% NaCl. The coronary artery was occluded for a period of 10 min by applying tension to the ligature and pressing the tube onto the heart surface. Reperfusion was initiated by removing the clamp and releasing the tension on the ligature and allowing the perfusion to continue for 20 min. Ventricular ectopic activity was assessed during the 20 min reperfusion period by measuring the duration of ventricular tachycardias and ventricular fibrillations from the ECG curves. The results are shown in Table 2, where the results are presented as mean ±SEM (in seconds) for the total duration of ventricular tachycardias and ventricular fibrillations during the 20 min reperfusion period, (or until eventual death of the animal). The incidence of animals showing ventricular tachycardia and ventricular fibrillation are also given Table 2 as the number of animals showing ventricular tachycardia and ventricular fibrillation. Figures in parenthese relate to incidents expressed in % of the total number of animals.
In Table 2 a star “*” denotes a significant difference from the control at p<0.05 using the appropriate statistical test. Alp=allopurinol. n=number of animals tested.

rat spleen tissue = assay: Formation of uric acid in spleen tissue under anaerobic conditions, HPLC
Protocol: Capacity of a hydroxyguanidine (PR5) to sustain the formation of uric acid in tissues. […] Pieces of 0.6 g of rat spleen tissue were incubated in 7.5 ml argon-saturated Tris-Ringer buffer (4 mM KCl, 100 mM NaCl, 2 mM CaCl2, 2 mg/ml glucose and 40 mM TrisHCl, pH 7.4) in 50 ml Erlenmeyer flasks at 37° C., care being taken to maintain an atmosphere of argon above the incubations. As aerobic control served identical incubations, except that the buffers were saturated with air and the incubations performed under air. After 30 min the flasks were opened and the tissues minced to obtain tissue cubes with about 1 mm sides. […] The supernatants were then centrifuged using Ultrafree-MC Biomax-10 Millipore filtration devices at 5000×g for 0.5 hr in order to obtain an essentially particle free preparation which was being kept at −20° C. until analysed for the uric acid content using HPLC.
For analysing the uric acid content the above preparations were thawed and 0.05 ml aliquots were injected onto Waters 2690 Separation Module using a 2.1×250 mm Vydac RP C18, 90A, 201HS1010 column using a linear gradient of 10 mM KH2PO4 (A) and 10 mM KH2PO4 in 50% (v/v) methanol/water (B) (both at pH 4.55 adjusted with phosphoric acid). […] The uric acid peak was eluted after 13 min and was identified and detected according to the spectrum of a standard uric acid reference.

[3] = target: T1, bovine milk xanthine oxidase; conditions: 20 μM allopurinol, 100 μM xanthine, 0.004 units/ml xanthine oxidase
Target sequence in this assay (P80457 2-1332): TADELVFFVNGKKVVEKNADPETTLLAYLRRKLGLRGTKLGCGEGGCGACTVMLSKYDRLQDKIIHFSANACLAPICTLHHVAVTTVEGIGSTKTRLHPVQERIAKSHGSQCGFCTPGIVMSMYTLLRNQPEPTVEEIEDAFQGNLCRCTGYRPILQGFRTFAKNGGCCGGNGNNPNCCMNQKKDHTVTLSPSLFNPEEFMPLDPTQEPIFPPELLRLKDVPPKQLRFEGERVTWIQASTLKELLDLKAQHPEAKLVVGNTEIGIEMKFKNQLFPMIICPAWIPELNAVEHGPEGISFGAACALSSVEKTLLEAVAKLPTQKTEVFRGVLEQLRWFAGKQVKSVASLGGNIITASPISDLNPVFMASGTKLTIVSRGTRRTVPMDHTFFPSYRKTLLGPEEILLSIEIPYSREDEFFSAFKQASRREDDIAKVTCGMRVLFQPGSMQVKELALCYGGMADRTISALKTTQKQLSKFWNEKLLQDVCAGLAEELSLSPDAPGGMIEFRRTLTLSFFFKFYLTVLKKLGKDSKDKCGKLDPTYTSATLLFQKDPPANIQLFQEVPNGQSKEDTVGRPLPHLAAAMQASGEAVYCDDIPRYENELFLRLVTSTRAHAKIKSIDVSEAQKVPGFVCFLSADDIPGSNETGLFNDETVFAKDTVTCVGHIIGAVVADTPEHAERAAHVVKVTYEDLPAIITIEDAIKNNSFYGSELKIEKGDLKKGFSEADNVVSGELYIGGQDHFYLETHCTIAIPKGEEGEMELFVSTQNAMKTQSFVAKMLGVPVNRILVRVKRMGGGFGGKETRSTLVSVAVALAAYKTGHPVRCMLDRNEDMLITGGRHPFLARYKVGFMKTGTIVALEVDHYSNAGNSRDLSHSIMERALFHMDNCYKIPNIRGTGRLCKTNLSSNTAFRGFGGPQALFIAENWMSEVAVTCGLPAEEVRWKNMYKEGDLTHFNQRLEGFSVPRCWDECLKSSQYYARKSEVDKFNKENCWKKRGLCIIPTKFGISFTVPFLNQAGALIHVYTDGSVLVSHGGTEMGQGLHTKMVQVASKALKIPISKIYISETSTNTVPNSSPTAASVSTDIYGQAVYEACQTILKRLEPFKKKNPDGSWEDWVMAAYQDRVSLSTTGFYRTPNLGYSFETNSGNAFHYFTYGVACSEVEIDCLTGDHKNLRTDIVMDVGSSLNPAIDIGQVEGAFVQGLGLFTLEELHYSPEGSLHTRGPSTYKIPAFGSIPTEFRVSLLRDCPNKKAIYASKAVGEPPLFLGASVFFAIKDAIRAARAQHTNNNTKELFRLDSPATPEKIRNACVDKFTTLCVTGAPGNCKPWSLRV
Protocol: Capacity of allopurinol to inhibit the reduction of hydroxyguanidines by xanthine oxidase. […] In these tests varying amounts of guanoxabenz was added to assays yielding 150 μl final volumes and containing final concentrations 0.004 units/ml of bovine milk xanthine oxidase (Sigma, St. Louis, MO., USA), 100 μM xanthine, 20 μM allopurinol, 50 pM α2-adrenoceptors (in HT29 cell membranes), 33 mM Tris HCl, 1 mM EDTA, pH 7.5, and incubating for 1 hour at 25° C.

[4] = 1 mg/kg i.v. 10 min before occlusion
[5] = 3 mg/kg i.v. 10 min before occlusion

For `COc1ccc(C=NNC(=N)NO)c(Cl)c1OC` [PR5, N-(3,4-Dimethoxy-2-chlorobenzylideneamino)-N′-hydroxyguanidine tosylate], the “V = 1000 × (Δabs 295 nm) min^−1 (initial rate of the support of the oxidation of xanthine)” value ([1]; 50 μM hydroxyguanidine, 50 μM xanthine, 0.05 units/ml xanthine oxidase, anaerobic, pH 7.5, 20° C., blank subtracted) was 96 1000 × (Δabs 295 nm) min^−1, the “activity / capacity to undergo reduction (reaction A), in words” value ([1]; as disclosed in Example 7) was “high activity” and the “Mortality Insidence (%)” value ([2]; 1 mg/kg i.v.) was 14%. The “Mortality Insidence (number of animals)” value ([2]; 1 mg/kg i.v.) was 2, the “Ventricular tachycardia Insidence (%)” value [2, 4] was 79% and the “Ventricular tachycardia Insidence (number of animals)” value [2, 4] was 11. For the same compound, the “Ventricular fibrilation Insidence (%)” value ([2]; 1 mg/kg i.v.) was 57%, the “Ventricular fibrilation Insidence (number of animals)” value ([2]; 1 mg/kg i.v.) was 8 and the “Ventricular fibrilation Duration” value ([2]; 1 mg/kg i.v.) was 34 ± 9 s. The “Ventricular tachycardia Duration” value ([2]; 1 mg/kg i.v.) was 61 ± 11 s, the “Mortality Insidence (%)” value ([2]; 3 mg/kg i.v.) was 0 (0)* % and the “Mortality Insidence (number of animals)” value ([2]; 3 mg/kg i.v.) was 0 (0)*. For the same compound, the “Ventricular tachycardia Insidence (%)” value [2, 5] was 64%, the “Ventricular tachycardia Insidence (number of animals)” value [2, 5] was 9 and the “Ventricular fibrilation Insidence (%)” value ([2]; 3 mg/kg i.v.) was 43%. The “Ventricular fibrilation Insidence (number of animals)” value ([2]; 3 mg/kg i.v.) was 6, the “Ventricular fibrilation Duration (s)” value ([2]; 3 mg/kg i.v.) was 20 ± 7* s and the “Ventricular tachycardia Duration (s)” value ([2]; 3 mg/kg i.v.) was 38 ± 7* s. The “Mortality Insidence (%)” value ([2]; 10 mg/kg) was 7%, the “Mortality Insidence (number of animals)” value ([2]; 10 mg/kg) was 1 and the “Ventricular fibrilation Insidence (%)” value ([2]; 10 mg/kg) was 36%. For the same compound, the “Ventricular fibrilation Insidence (number of animals)” value ([2]; 10 mg/kg) was 5, the “Ventricular tachycardia Insidence (%)” value ([2]; 10 mg/kg) was 57% and the “Ventricular tachycardia Insidence (number of animals)” value ([2]; 10 mg/kg) was 8. For the same compound, the “Ventricular fibrilation Duration (s)” value ([2]; 10 mg/kg) was 17 ± 5* s, the “Ventricular tachycardia Duration (s)” value ([2]; 10 mg/kg) was 34 ± 7* s and the “effect on incidence and duration of ventricular tachycardias and fibrillations and on mortality, in words” value [2] was “significant decrease”. For the same compound, the “uric acid in original incubation medium” value (rat spleen tissue; 0.5 mM PR5, anaerobic (argon), 60 min, 37° C.) was 285.5 µmol/L and the “formation of uric acid under the anaerobic conditions, in words” value (rat spleen tissue; 0.5 mM PR5, compared with aerobic control) was “restored completely to that of the aerobic control”.
In the case of `Oc1ncnc2[nH]ncc12` [Allopurinol, 1H-pyrazolo[3,4-d]pyrimidin-4ol, reference compound], the “decrease in the apparent affinity of guanoxabenz on addition of allopurinol” value [3] is reported as “about 24 fold”, the “Mortality Insidence (%)” value ([2]; 10 mg/kg) is reported as 7% and the “Mortality Insidence (number of animals)” value ([2]; 10 mg/kg) is reported as 1. The “Ventricular fibrilation Insidence (%)” value ([2]; 10 mg/kg) was 50%, the “Ventricular fibrilation Insidence (number of animals)” value ([2]; 10 mg/kg) was 7 and the “Ventricular tachycardia Insidence (%)” value ([2]; 10 mg/kg) was 64%. The “Ventricular tachycardia Insidence (number of animals)” value ([2]; 10 mg/kg) was 9, the “Ventricular fibrilation Duration” value ([2]; 10 mg/kg) was 30 ± 10 s and the “Ventricular tachycardia Duration” value ([2]; 10 mg/kg) was 59 ± 12 s. The “effect on incidence and duration of ventricular tachycardias and fibrillations and on mortality, in words” value [2] was “reduces these indices, although to a lesser extent than 3-10 mg/kg of PR5”.
